Experiments:
Test in all cases: Germination induction, change of turbidity (630 nm) of spore suspension
Assay type in all cases: cell-based
[1] = test system: Bacillus licheniformis (NBRC 12200); conditions: 300 ppm; for turbidity (630 nm): 37° C., 150 rpm
Experimental: (§1) It is possible to determine whether spores have germinated, after measuring an OD 630 value (turbidity at 630 nm) of the liquid culture, based on decrease in the value (Literature: Microbiology, (1950), 4, 3, 330-338). Briefly, bacterial cells after culturing are washed with distilled water and diluted with distilled water to OD 630=1.0, which is then mixed with an equal volume of a germination induction solution, and the turbidity at 630 nm is measured by a UV spectrophotometer at room temperature.
(§2) TS culture media (Difco, Trypticase Soy Broth) were inoculated respectively with 11 strains listed in Table 1 and cultured at 50° C. with respect to Geobacillus stearothermophilus NBRC13737 and Aeribacillus pallidus TK6004 (FERM BP-08597), and at 37° C. with respect to the other 9 strains, until respective colonies were established. Then with respect to each of 11 strains, a loop full of a single colony was scratched by a platinum loop and suspended in 500 μL of sterilized water. In 1000 g of water was dissolved 8.0 g of a nutrient agar culture medium (Difco, Nutrient Broth), followed by high pressure steam sterilization (121° C., 15 min) to prepare a plate medium. The nutrient agar culture medium was smeared with each 100 μL of the suspension and cultured at 37° C. for 3 days.
(§3) Then, bacterial cells were suspended using a platinum loop in 500 μL of sterilized water, and the bacterial suspension was subjected to a heat shock at 65° C. for 35 min. Each 100 μL of the heat-shocked bacterial suspension and a not-heat-shocked bacterial suspension were smeared on the TS culture media respectively and cultured at 50° C. or 37° C. for 1 day.
(§4) After confirming the spore formation, the bacterial cells were collected by a bacteria spreader, suspended in 10 mL of sterilized distilled water, and then centrifuged (8340×g, 4° C., 15 min). The supernatant was removed and thereafter the bacterial cells were washed twice with 10 mL of sterilized water. After washing, the bacterial cells were suspended in 5 mL of sterilized water, and the suspension was filtrated by sterilized Kimwipes. The filtrate was centrifuged (8340×g, 4° C., 15 min) to remove the supernatant, and the rest was adjusted to the turbidity (at 630 nm) of 1.0 with sterilized water.
(§5) After dissolving with stirring using a stirring rod with a propeller, filtration sterilization (0.45 μm filter) was conducted to prepare each 600 ppm-solution.
(§6) Five hundred (500) μL of each solution and 500 μL of each bacterial spore suspension were mixed. […] Defining the time point of mixing as the reaction initiation (0 min), and continuing shaking (150 rpm) at 37° C., the turbidity (630 nm) was measured at 10, 20, 30, 40, 50, 60, 90, 120, and 180 min after the reaction initiation.
(§7) Since the turbidity at 630 nm decreases by germination of spores, it has been known that the turbidity at 630 nm can be used to determine the germination rate.

[2] = test system: Bacillus licheniformis (NBRC 14206); conditions: 300 ppm; for turbidity (630 nm): 37° C., 150 rpm
Experimental: as §1, §2, §3, §4, §5, §6, §7

[3] = test system: Bacillus subtilis sp spizizenii (NBRC 101239); conditions: 300 ppm, 37° C., 150 rpm
Experimental: as §1, §2
as §3, with “day. As the results of the cultures, colony formation was confirmed also with respect to the heat-shocked bacterial suspensions, to confirm that spores were formed for all of 11 strains. Further, since the bacteria were not stained by Gram staining, it was reconfirmed that spores were formed.” for “day.”
as §4, §5, §6, §7

[4] = test system: Bacillus amyloliquefaciens (NBRC 3032); conditions: 300 ppm; for turbidity (630 nm): 37° C., 150 rpm
Experimental: as §1, §2
as §3, with “day. As the results of the cultures, colony formation was confirmed also with respect to the heat-shocked bacterial suspensions, to confirm that spores were formed for all of 11 strains. Further, since the bacteria were not stained by Gram staining, it was reconfirmed that spores were formed.” for “day.”
as §4, §5, §6, §7

[5] = test system: Geobacillus stearothermophilus (NBRC 13737); conditions: 300 ppm; for turbidity (630 nm): 37° C., 150 rpm
Experimental: as §1, §2
as §3, with “day. As the results of the cultures, colony formation was confirmed also with respect to the heat-shocked bacterial suspensions, to confirm that spores were formed for all of 11 strains. Further, since the bacteria were not stained by Gram staining, it was reconfirmed that spores were formed.” for “day.”
as §4, §5, §6, §7

[6] = test system: Bacillus amyloliquefaciens (NBRC 3022); conditions: 300 ppm; for turbidity (630 nm): 37° C., 150 rpm
Experimental: as §1, §2
as §3, with “day. As the results of the cultures, colony formation was confirmed also with respect to the heat-shocked bacterial suspensions, to confirm that spores were formed for all of 11 strains. Further, since the bacteria were not stained by Gram staining, it was reconfirmed that spores were formed.” for “day.”
as §4, §5, §6, §7

[7] = test system: Bacillus subtilis C-3102 (FERM BP-1096); conditions: 300 ppm; for turbidity (630 nm): 37° C., 150 rpm
Experimental: as §1, §2
as §3, with “day. As the results of the cultures, colony formation was confirmed also with respect to the heat-shocked bacterial suspensions, to confirm that spores were formed for all of 11 strains. Further, since the bacteria were not stained by Gram staining, it was reconfirmed that spores were formed.” for “day.”
as §4, §5, §6, §7

[8] = 0 min after reaction initiation
[9] = 10 min after reaction initiation
[10] = 20 min after reaction initiation
[11] = 30 min after reaction initiation
[12] = 40 min after reaction initiation
[13] = 50 min after reaction initiation
[14] = 60 min after reaction initiation
[15] = 90 min after reaction initiation
[16] = 120 min after reaction initiation
[17] = 180 min after reaction initiation

COc1cc(C(=O)O)ccc1O [Vanillic acid, vanillic acid]
turbidity (630 nm) [1, 8]: 0.602 | turbidity (630 nm) [1, 9]: 0.574 | turbidity (630 nm) [1, 10]: 0.567 | turbidity (630 nm) [1, 11]: 0.542 | turbidity (630 nm) [1, 12]: 0.523 | turbidity (630 nm) [1, 13]: 0.488 | turbidity (630 nm) [1, 14]: 0.464 | turbidity (630 nm) [1, 15]: 0.414 | turbidity (630 nm) [1, 16]: 0.362 | turbidity (630 nm) [1, 17]: 0.267 | germination confirmed by turbidity decrease ([1]; up to 180 min): the turbidity decreased | turbidity (630 nm) [2, 8]: 0.583 | turbidity (630 nm) [2, 9]: 0.573 | turbidity (630 nm) [2, 10]: 0.563 | turbidity (630 nm) [2, 11]: 0.553 | turbidity (630 nm) [2, 12]: 0.537 | turbidity (630 nm) [2, 13]: 0.526 | turbidity (630 nm) [2, 14]: 0.503 | turbidity (630 nm) [2, 15]: 0.470 | turbidity (630 nm) [2, 16]: 0.453 | turbidity (630 nm) [2, 17]: 0.414 | germination confirmed by turbidity decrease ([2]; up to 180 min): the turbidity decreased | turbidity (630 nm) [3, 8]: 0.529 | turbidity (630 nm) [3, 9]: 0.520 | turbidity (630 nm) [3, 10]: 0.516 | turbidity (630 nm) [3, 11]: 0.512 | turbidity (630 nm) [3, 12]: 0.510 | turbidity (630 nm) [3, 13]: 0.510 | turbidity (630 nm) [3, 14]: 0.502 | turbidity (630 nm) [3, 15]: 0.488 | turbidity (630 nm) [3, 16]: 0.479 | turbidity (630 nm) [3, 17]: 0.474 | turbidity (630 nm) [4, 8]: 0.519 | turbidity (630 nm) [4, 9]: 0.496 | turbidity (630 nm) [4, 10]: 0.485 | turbidity (630 nm) [4, 11]: 0.435 | turbidity (630 nm) [4, 12]: 0.385 | turbidity (630 nm) [4, 13]: 0.359 | turbidity (630 nm) [4, 14]: 0.316 | turbidity (630 nm) [4, 15]: 0.278 | turbidity (630 nm) [4, 16]: 0.237 | turbidity (630 nm) [4, 17]: 0.210 | germination confirmed by turbidity decrease ([4]; up to 180 min): the turbidity decreased | turbidity (630 nm) [5, 8]: 0.584 | turbidity (630 nm) [5, 9]: 0.590 | turbidity (630 nm) [5, 10]: 0.531 | turbidity (630 nm) [5, 11]: 0.510 | turbidity (630 nm) [5, 12]: 0.467 | turbidity (630 nm) [5, 13]: 0.445 | turbidity (630 nm) [5, 14]: 0.402 | turbidity (630 nm) [5, 15]: 0.291 | turbidity (630 nm) [5, 16]: 0.209 | turbidity (630 nm) [5, 17]: 0.099 | germination confirmed by turbidity decrease ([5]; up to 180 min): the turbidity decreased | turbidity (630 nm) [6, 8]: 0.548 | turbidity (630 nm) [6, 9]: 0.402 | turbidity (630 nm) [6, 10]: 0.295 | turbidity (630 nm) [6, 11]: 0.221 | turbidity (630 nm) [6, 12]: 0.150 | turbidity (630 nm) [6, 13]: 0.100 | turbidity (630 nm) [6, 14]: 0.076 | turbidity (630 nm) [6, 15]: 0.047 | turbidity (630 nm) [6, 16]: 0.021 | turbidity (630 nm) [6, 17]: 0.018 | germination confirmed by turbidity decrease ([6]; up to 180 min): the turbidity decreased | turbidity (630 nm) [7, 8]: 0.604 | turbidity (630 nm) [7, 9]: 0.575 | turbidity (630 nm) [7, 10]: 0.551 | turbidity (630 nm) [7, 11]: 0.543 | turbidity (630 nm) [7, 12]: 0.505 | turbidity (630 nm) [7, 13]: 0.483 | turbidity (630 nm) [7, 14]: 0.461 | turbidity (630 nm) [7, 15]: 0.432 | turbidity (630 nm) [7, 16]: 0.390 | turbidity (630 nm) [7, 17]: 0.266 | germination confirmed by turbidity decrease ([7]; up to 180 min): the turbidity decreased

— patent US20140308733A1, “METHOD FOR INDUCING GERMINATION OF SPORE FORMING BACTERIUM” (CALPIS CO., LTD., priority 2011, published 2014)
